Assay results published in patent publication US20040022782A1, “Cyclitol containing carbohydrates from human tissue which regulate glycogen metabolism” (Rodaris Pharmaceuticals Limited, priority 1996, published 2004).

What was measured:
[1] = biological target: T1, pyruvate dehydrogenase phosphatase isolated from bovine heart (Bos taurus, UniProt P35816); assay: Stimulation of pyruvate dehydrogenase (PDH) phosphatase; assay type: biochemical
T1 construct: pyruvate dehydrogenase phosphatase isolated from bovine heart; from tissue; host or cells: bovine heart
T1 sequence (P35816 72-538): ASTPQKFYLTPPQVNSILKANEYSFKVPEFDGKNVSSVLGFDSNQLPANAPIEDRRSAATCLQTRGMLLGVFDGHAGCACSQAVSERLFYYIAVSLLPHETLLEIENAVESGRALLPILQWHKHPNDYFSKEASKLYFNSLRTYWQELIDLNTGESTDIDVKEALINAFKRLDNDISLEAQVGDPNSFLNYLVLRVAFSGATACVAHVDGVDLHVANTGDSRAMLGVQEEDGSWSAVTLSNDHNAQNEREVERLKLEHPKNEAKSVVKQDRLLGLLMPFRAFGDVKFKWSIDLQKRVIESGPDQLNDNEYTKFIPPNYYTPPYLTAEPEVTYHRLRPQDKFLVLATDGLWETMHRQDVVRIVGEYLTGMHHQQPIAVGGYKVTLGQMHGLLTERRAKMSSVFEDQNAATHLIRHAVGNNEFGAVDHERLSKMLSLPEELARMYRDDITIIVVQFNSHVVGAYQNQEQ
T1 sequence (O46504 32-878 partner limits assumed): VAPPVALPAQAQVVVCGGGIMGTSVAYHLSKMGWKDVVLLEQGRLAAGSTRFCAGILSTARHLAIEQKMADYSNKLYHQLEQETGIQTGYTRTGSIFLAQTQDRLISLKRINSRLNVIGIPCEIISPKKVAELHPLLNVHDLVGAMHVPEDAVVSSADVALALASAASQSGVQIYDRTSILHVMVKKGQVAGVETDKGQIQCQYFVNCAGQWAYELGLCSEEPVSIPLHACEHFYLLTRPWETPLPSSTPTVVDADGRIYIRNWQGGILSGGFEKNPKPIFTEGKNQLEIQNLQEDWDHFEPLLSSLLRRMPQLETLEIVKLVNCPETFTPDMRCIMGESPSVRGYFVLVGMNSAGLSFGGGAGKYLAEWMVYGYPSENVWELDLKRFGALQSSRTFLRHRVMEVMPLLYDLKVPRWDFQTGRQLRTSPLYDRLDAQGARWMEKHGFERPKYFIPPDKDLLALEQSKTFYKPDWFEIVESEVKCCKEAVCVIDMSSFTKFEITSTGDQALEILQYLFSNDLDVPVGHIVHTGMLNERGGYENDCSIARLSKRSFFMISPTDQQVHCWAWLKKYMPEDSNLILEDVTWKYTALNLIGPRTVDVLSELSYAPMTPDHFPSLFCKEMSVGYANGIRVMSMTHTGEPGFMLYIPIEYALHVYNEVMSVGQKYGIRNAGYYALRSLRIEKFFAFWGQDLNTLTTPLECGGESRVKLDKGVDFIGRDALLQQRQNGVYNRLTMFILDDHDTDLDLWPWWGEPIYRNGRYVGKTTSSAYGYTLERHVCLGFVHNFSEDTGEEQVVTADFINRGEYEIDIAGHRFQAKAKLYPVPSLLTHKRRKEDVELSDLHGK
Method: Pyruvate dehydrogenase complex (PDC) and the PDH phosphatase were prepared and stored at −80° C. until use. The assay for both PDH phosphatases, in the presence of absence of insulin mediator, was based upon the initial rate of activation of inactivated, phosphorylated PDH complex. […] A two stage assay was used to quantitate the phosphatase activity. A sample of inactivated PDC (50 μL) was preincubated at 30° C. with 1 mg/mL fat-free BSA, 10 mM MgCl2, 0.1 mM CaCl2 and […] DTT in 20 mM potassium phosphate buffer at pH 7.0 (total volume 250 μL) for three minutes. At this time, 10 μL of the PDH phosphatase and 10 μL of IPG were added and the incubation continued for a further 2 min. At the end of this time, 200 μL of the mix was removed and added to 100 μL of 300 mM NaF. The activated PDH was determined at the second stage photometrically by measuring the rate of production of NADH. One hundred microliters of the stopped reaction were added to 1 mL of reaction mixture containing 50 mM potassium phosphate buffer at pH 8.0, 2.5 mM β-NAD^+, 0.2 mM TPP, 0.13 mM coenzyme A, 0.32 mM DTT and 2 mM sodium pyruvate. The production of NADH was followed at 340 nm for 5 min.
Three samples of liver P-type used. All were suspended on day of use at the rate of 1 g liver in […] water. All three preparations were tested before and after treatment with dithizone, while the one preparation was also treated with Mn after dithizone to attempt to reactivate it. The reactivation procedure was to preincubate a de-metallized sample with 2.7 mM Mn for 15 min before it was added to the inactivated PDH mix.
The P-1 sample used here was the same as that used in previous experiment although a second tube of that composite sample. The dithizone treated sample was the same as that used previously. For reactivation, the de-medalist sample was pre-incubated for 15 mins with either 2.7 mM Mn, 1.8 mM Zn or 2.7 mM Mn-1.8 mM Zn. All samples tested on normal assay system using 10 μl P′ase and 5 ul of sample.

[2] = tested on: Glycogen synthase; assay: Glycogen synthase activity in rat fat cells; assay type: cell-based; conditions: 5 min incubation, 20 μl insulin (25 mU/ml) or 10 μl placenta IPG
Method: Glycogen synthase activity was assayed as follows. Fat cells were prepared from epididymal adipose tissue using 140-150 g rats (Wistar strain). Fat pads from 3 rats were cut into small pieces and incubated in 8 ml of Krebs ringer bicarbonate containing 2% albumin plus 24 mg of collagenase for 25 minutes at 37° C. The isolated cells were filtered and washed in 3×10 ml Krebs ringer phosphate medium containing 30 mg/ml of bovine serum albumin (Fraction v, Sigma), the pH was adjusted to 7.4 with NaOH after addition of albumin. The washed cells were also resuspended in Krebs ringer phosphate (10 ml of medium/g of original tissue).
For measurement of enzyme activities, three incubation vessels were set up, each contained 5 ml cells. There were no additions to the first, the second contained 20 μl insulin (25 mU/ml) and the third 10 μl placenta IPG. […]
The reaction was stopped with 0.5 ml cold buffer (100 mM KF/10 mM EDTA/1 mM benzamidine (4), pH 7.0) and the cells homogenized and transferred to Eppendorf tubes. These were spun at 10,000 g for 15 min and the middle layer collected for enzyme assay all tubes were set up in duplicate and measured in the presence of 0.01 mM glucose 6-phosphate except the maximally activated glycogen synthase tube which contained 7.2 mM glucose 6-phosphate. […] Glycogen synthase activity is expressed as a percentage of the total synthase activity (G6P maximum).

[3] = tested on: rat liver; assay: IPG release in rat liver following infusion with insulin; assay type: in vivo; conditions: 2 minutes after insulin infusion
[4] = reactivation experiment, 10 μl P'ase and 5 ul of sample, 2.7 mM Mn, 1.8 mM Zn, Treated = dithizone

Compound | % stimulation [1, 4] | Stimulation as % of G6P Maximum [2] | increase in PDH phosphatase stimulating activity of rat liver [3] | effect on P'ase activity ([1]; 10^−4M Mn (assay no: 3)) | PDH phosphatase (activity) ([1]; +Mg2+ + Ca2+) | PDH phosphatase (activity) ([1]; +Mg2+, no Ca2+) | Units/g ([1]; dithizone experiment, Vol used 5 μl, Treated = dithizone, Mn 2.7 mM) | % stimulation ([1]; dithizone experiment, Vol used 5 μl, liver P-type 1 g liver in 10 μl water, Treated = dithizone, Mn 2.7 mM)
[Zn+2] [Zn] | +122% | – | – | – | – | – | – | –
insulin | – | 6.54% | two-fold increase in activity | – | – | – | – | –
[Mn+2] [Mn, manganese] | +12% | – | – | no effect | Δ 0.680 OD/min (2) | Δ 0.000 OD/min (6) | 0 Units/g | −11%
